Laboratory results reported in patent US6461822B2, “Methods of screening compounds for their ability to inhibit the production of inflammatory cytokines” (Pfizer Inc., priority 1998, dated 2002).

Experiments:
[1] = tested on: ATP-induced IL-1β production; test: IL-1β production assay, ELISA method (ATP-induced IL-1β production by LPS-activated human monocytes); type: cell-based; conditions: for ATP-induced IL-1β production: human monocytes treated continuously with agent, FIG. 2A
Protocol: IL-1β production assay—ELISA method. Human monocytes were isolated from heparinized blood collected from normal volunteers. 100 ml of blood was diluted with 20 ml of RPMI 1640 medium that contained 5% FBS, 25 mM Hepes, pH 7.3, 2 mM glutamine, and 1% penicillin/streptomycin (Maintenance Medium). 30 ml of this suspension then was layered onto 15 ml of Lymphocyte Separation Medium (Organo Technicon) and centrifuged for 30 min at 1400 rpm at room temperature in a clinical centrifuge. The resulting mononuclear cell layer was harvested, diluted with Maintenance Medium, and the cells were pelleted by centrifugation. The recovered cells were washed with Maintenance Medium by repeated centrifugation. Each well of a 96 well plate was seeded with 2×10^5 mononuclear cells in 0.1 ml of Maintenance Medium; monocytes were allowed to adhere for 2 hr, then the medium (containing non-adherent cells) was replaced with 0.1 ml of fresh medium, and the monocytes were incubated overnight at 37° C. Monocytes were activated with 10 ng/ml of LPS (E. coli; serotype 055:B5) for 2 hr after which the medium was replaced with 0.1 ml of RPMI 1640, 20 mM Hepes, pH 6.9, 100 units/ml penicillin, 100 μg/ml streptomycin, 1% FBS (Release Medium) containing the indicated concentration of test agent; compounds were dissolved in DMSO and the final DMSO concentration in all wells was maintained at 0.2%. […] Cells subsequently were removed by centrifugation, media supernatants were harvested, and IL-1β levels within the media samples were determined with a specific ELISA kit (R and D Systems); each data point is the average of quadruplicate determinations.

[2] = tested on: soluble polypeptides of human monocytes (31, 32, 56 kDa); test: Identification of DASU binding proteins: labeling of monocyte polypeptides by [14C]DASUs; conditions: [14C]labeled ligand 100 nM to 10 μm; FIG. 3
Protocol: Identification of DASU binding proteins. Human monocytes (isolated as described above and plated on 6 cm dishes) were treated with [^14C]Compound 1 in 3 ml of Release Medium (devoid of FBS) for 60 min after which cells were washed twice with 5 ml of Release Medium containing 5% FBS and suspended in 1 ml of 25 mM Hepes, pH 7, 150 mM NaCl, 1 μg/ml pepstatin, 1 μg/ml leupeptin, containing 0.5% saponin. Lysates were clarified by ultracentrifugation and the recovered soluble fractions were exchanged into 10 mM Tris, pH 8, containing 1 μg/ml each of pepstatin and leupeptin with the use of Centricon 30 concentration units. Final concentrates were lyophilized and then solubilized in SDS sample buffer.

[3] = target: bacterial glutathione S-transferase (Schistosoma japonicum, UniProt P08515); type: binding; conditions: identical conditions; FIG. 7A
From the text: (§1) Labeling rDBPs. […].

rDBP-32 = target: T1, rDBP-32 (Homo sapiens, UniProt O00299); test: Labeling rDBPs with [14C]Compound 2 (SDS PAGE, phosphorimager); type: binding; conditions: FIG. 7A
T1 construct: cleaved with thrombin to yield full-length rDBP-31 and rDBP-32 polypeptides; GST (N, cleaved yes); made in house; host or cells: E. coli (as for DBP-31: BL21 [DE3], pGEX2T)
From the text: as §1

[4] = tested on: porcine liver carboxylesterase; test: in vitro carboxylesterase enzyme assay with p-nitrophenyl propionate; conditions: co-incubation with 100 μM

bacterial glutathione S-transferase, sequence (P08515 2-218 limits assumed): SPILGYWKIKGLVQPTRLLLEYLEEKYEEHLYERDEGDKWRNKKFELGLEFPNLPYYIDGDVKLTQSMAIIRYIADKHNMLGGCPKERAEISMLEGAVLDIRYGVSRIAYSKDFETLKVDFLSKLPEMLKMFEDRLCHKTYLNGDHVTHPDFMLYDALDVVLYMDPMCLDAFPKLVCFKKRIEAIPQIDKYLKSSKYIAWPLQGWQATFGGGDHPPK

melting point	Compound	ATP-induced IL-1β production [1]	radiolabeled polypeptides in soluble fraction of monocyte extracts [2]	IL-1 production of [14C]DASU-treated cells exposed to ATP ([1]; FIG. 3B)	labeling of bacterial glutathione S-transferase [3]	labeling of rDBP-32 (rDBP-32)	reduction of observed carboxylesterase enzymatic activity [4]	IL-1β production after pretreatment and ATP in absence of compound ([1]; pretreated 60 min, then ATP without compound, FIG. 2B)
–	O=[N+]([O-])c1ccc(OCC2CO2)cc1 (centres unmarked) [2-(4-nitro-phenoxymethyl)-oxirane, reference compound]	did not inhibit	–	–	–	–	–	–
126 to 130 °C	CC(C)c1cc(Cl)cc(C(C)C)c1NC(=O)NS(=O)(=O)c1cc(C2CO2)ccc1F (centres unmarked) [Compound 1, 1-(4-Chloro-2,6-diisopropyl-phenyl)-3-[2-fluoro-5-oxiranylbenzene-sulfonyl]-urea]	dose-dependent inhibition	several radiolabeled polypeptides were detected	dose-dependent inhibition	–	–	–	–
–	O=C(Nc1c2c(cc3c1CCC3)CCC2)NS(=O)(=O)c1cc(C2CO2)ccc1F (centres unmarked) [Compound 2, 1-(1,2,3,5,6,7-Hexahydro-s-indacen-4-yl)-3-[2-fluoro-5-oxiranyl-benzenesulfonyl]-urea]	dose-dependent inhibition	several radiolabeled polypeptides were detected	–	not labeled	labeled by [^14C]Compound 2 in a concentration dependent manner	67%	remained suppressed
